Measurements taken from US5939387A, “Method of treating insulin resistance” (Eli Lilly and Company, priority 1996, dated 1999).
*: point of attachment. p‑methylhippuroyl = Cc1ccc(C(=O)NCC(=O)*)cc1

Columns and labels:
[1] = system: Zucker Diabetic Fatty (ZDF/Gmi-fa/fa) male rats; test: ZDF Male Rat Assay; type: in vivo; details: for Total Body Mass, final weight / Epididymal Fat weight / Lean Mass, final weight: ZDF rats; for Total Body Mass, final weight: mean of 8; for Epididymal Fat weight / Lean Mass, final weight: 6 to 14 weeks of age
Source text: A growth hormone releasing agent is continuously administered to Zucker diabetic male rats subcutaneously by use of an "Alzet" mini osmotic pump. The treatment was started at approximately 6 weeks of age and continued for approximately 6-8 weeks. The experiment was designed to allow the study of changes in the typical plasma glucose and insulin level profiles with the progression of the diabetic disease state.
Zucker Diabetic Fatty (ZDF/Gmi™-fa/fa) male rats were obtained from Genetic Models Inc. (Indianapolis, Ind.). The rats were maintained on Purina Formula 5008 rat chow (Purina Mills, Inc., St. Louis, Mo.) and housed in a light controlled room of alternating 12 hour cycles of light and dark. Rats were singly housed and given free access to food and water. At 5 weeks of age, an oral glucose tolerance test (OGTT: 16 hr fast, oral glucose concentration at 2.5 grams/kg body weight; Butler dextrose solution 50%, lot # 3342, Ft. Collins, Colo.; time points at 0, 30, 60, and 120 minutes) was given to each rat and their plasma assayed for glucose and insulin levels. At 6 weeks of age Alzet minipumps, containing a 1.5 inch polyethylene tube extensions (Model 2001, lot # 040401, 1.0 μl/hr, 7 days; Alza Corporation, Palo Alto, Calif.) were implanted subcutaneously. Animals were anesthetized with isoflurane at approximately 2-3% in oxygen. Each rat was shaved and a Povidone Iodine scrub was used at the site of implantation. A small incision was made above and just posterior to the shoulder. A small pocket was made and the pump placed in so the delivery port was away from the incision. The incision was then closed with wound clips and the rat observed and kept warm until awake. At the end of 7 days the pumps were removed from the rat and a new pump implanted subcutaneously as previously described. Pumps contained vehicle (PBS) or a growth hormone releasing agent (8 rats/group).
The GH releasing agent was prepared at concentrations of 625 and 62.5 μg/mL and loaded into Alzet pumps using sterile techniques. Body weight and food consumption were monitored once a week. Rats were bled from the tail for plasma glucose, insulin, and growth hormone levels weekly. One week prior to sacrificing the rats, an I.P. injection of tetracycline was given to each rat and then again the day before sacrificing (20 mg/mL; 0.5 mL/animal) to determine bone growth.
Assays: Plasma glucose concentrations were determined by the glucose hexokinase method (IL Test GLucose, lot # I1040502; Instrumentation Laboratory Company, Lexington, Mass.) with a model 2000 Monarch (Instrumentation Laboratory Company, Lexington, Mass.). Insulin was determined with a Coat-a-Count kit (Diagnostic Products Corporation, Los Angeles, Calif.) using a rat insulin standard (Lilly Research Laboratories, Indianapolis, Ind.). Glucagon was assayed with a double antibody procedure using guinea pig anti-glucagon (Catalog no. 1032; Linco Research, St. Louis, Mo.), goat anti-guinea pig (lot # T67-7GZ-237); Lilly Research Laboratories, Indianapolis, Ind.) and ^125 I-glucagon (DuPont New England Nuclear, Wilmington, Del.). Growth hormone was assayed using rat growth hormone standard (purchased from Parlow, Torrance Calif.; rGH-RP-2, lot AFP-3190B), anti rGH (purchased from Parlow, Torrance Calif.; rGH-s-r, lot AFP411S), ^125 I-rGH (Corning-Hazelton, Vienna, Va.) and protein A IGSL100 (Enzyme Center, Malden, Mass.).

[2] = system: Male Fischer 344 rats 26 months of age; test: Aged Rat Study (oral glucose tolerance test); type: in vivo; details: 2 μg/kg sc daily for 6 weeks
Method: Animals: Male Fischer 344 rats 26 months of age were randomly assigned to three treatment groups (8 animals per group). Animals were housed in individual cages in a temperature and humidity-controlled environment and exposed to 12 h light/12 h dark lighting schedule (lights on at 0600 h). Animals were fed ad libitum on a daily basis.
Treatments: Animals received daily injection (sc., 0.5 ml at 0700 h) of vehicle; active compound, 2 μg/kg body weight for six weeks. At the end of the treatment period and one day prior to testing, food was removed and animals were fasted for 16 hours. Glucose tolerance test was initiated at 0700 h in conscious and freely moving rats. Blood was collected by tail clipping method. A control blood sample (0.2 mL) was collected before ingesting glucose (2.5 g/kg body weight). Subsequent blood samples were collected at 30, 60, 90 and 120 min. after glucose ingestion. Blood was collected on ice and glucose concentrations were determined by bichromatic analysis using the IL Monarch Chemistry Systems (Cat. # 35199, Instrumentation Laboratory, Mass.). Plasma was separated and samples were kept frozen (-20° C.) until assay for insulin concentrations using double antibody radioimmuonoassay. […]
Area under the response curve was calculated using the trapezoidal method and data were analyzed by ANOVA with Duncan's multiple range test.

[3] = age 6 weeks, 0.001 μg/min continuous infusion
[4] = age 6 weeks, 0.01 μg/min continuous infusion
[5] = age 7 weeks, 0.001 μg/min continuous infusion
[6] = age 7 weeks, 0.01 μg/min continuous infusion
[7] = age 8 weeks, 0.001 μg/min continuous infusion
[8] = age 8 weeks, 0.01 μg/min continuous infusion
[9] = age 9 weeks, 0.001 μg/min continuous infusion
[10] = age 9 weeks, 0.01 μg/min continuous infusion
[11] = age 10 weeks, 0.001 μg/min continuous infusion
[12] = age 10 weeks, 0.01 μg/min continuous infusion
[13] = age 11 weeks, 0.001 μg/min continuous infusion
[14] = age 11 weeks, 0.01 μg/min continuous infusion
[15] = age 12 weeks, 0.001 μg/min continuous infusion
[16] = age 12 weeks, 0.01 μg/min continuous infusion
[17] = age 13 weeks, 0.001 μg/min continuous infusion
[18] = age 13 weeks, 0.01 μg/min continuous infusion

## p-methyl hippuroyl Leu(27) (1-44)OH hGHRH ({p‑methylhippuroyl}-YADAIFTNSYRKVLGQLSARKLLQDILSRQQGESNQERGARARL-OH) [GHRH Analog, functional analog of GHRH disclosed in EP 511 003, agent capable of stimulating growth hormone release]
[1]; 0.001 μg/min continuous sc infusion from 6 to 14 weeks of age
  Total Body Mass, final weight: 327.06 g
[1]; 0.001 μg/min infusion
  Epididymal Fat weight: 0.25 g
  Lean Mass, final weight: 327.06 g
[1]; 0.01 μg/min continuous sc infusion from 6 to 14 weeks of age
  Total Body Mass, final weight: 388.16 g
[1]; 0.01 μg/min infusion
  Epididymal Fat weight: 0.33 g
  Lean Mass, final weight: 388.16 g
[1]; [3]
  Mean Plasma Glucose: 139.99 mg/dL
  Mean Plasma Insulin: 9.81 ng/mL
[1]; [4]
  Mean Plasma Glucose: 139.86 mg/dL
  Mean Plasma Insulin: 11.21 ng/mL
[1]; [5]
  Mean Plasma Glucose: 155.34 mg/dL
  Mean Plasma Insulin: 23.91 ng/mL
[1]; [6]
  Mean Plasma Glucose: 148.68 mg/dL
  Mean Plasma Insulin: 24.76 ng/mL
[1]; [7]
  Mean Plasma Glucose: 183.41 mg/dL
  Mean Plasma Insulin: 27.33 ng/mL
[1]; [8]
  Mean Plasma Glucose: 165.01 mg/dL
  Mean Plasma Insulin: 26.81 ng/mL
[1]; [9]
  Mean Plasma Glucose: 331.91 mg/dL
  Mean Plasma Insulin: 21.11 ng/mL
[1]; [10]
  Mean Plasma Glucose: 215.49 mg/dL
  Mean Plasma Insulin: 24.23 ng/mL
[1]; [11]
  Mean Plasma Glucose: 389.18 mg/dL
  Mean Plasma Insulin: 20.18 ng/mL
[1]; [12]
  Mean Plasma Glucose: 235.91 mg/dL
  Mean Plasma Insulin: 27.85 ng/mL
[1]; [13]
  Mean Plasma Glucose: 392.65 mg/dL
  Mean Plasma Insulin: 20.98 ng/mL
[1]; [14]
  Mean Plasma Glucose: 232.89 mg/dL
  Mean Plasma Insulin: 30.05 ng/mL
[1]; [15]
  Mean Plasma Glucose: 496.75 mg/dL
  Mean Plasma Insulin: 21.48 ng/mL
[1]; [16]
  Mean Plasma Glucose: 317.11 mg/dL
  Mean Plasma Insulin: 36.45 ng/mL
[1]; [17]
  Mean Plasma Glucose: 446.03 mg/dL
  Mean Plasma Insulin: 16.29 ng/mL
[1]; [18]
  Mean Plasma Glucose: 248.28 mg/dL
  Mean Plasma Insulin: 29.92 ng/mL
[1]; age 14 weeks, 0.001 μg/min continuous infusion
  Mean Plasma Glucose: 461.40 mg/dL
[1]; age 14 weeks, 0.01 μg/min continuous infusion
  Mean Plasma Glucose: 229.36 mg/dL
[2]; time 0 min
  Plasma Glucose, oral glucose tolerance test: 104.2 mg/dL
  Plasma Insulin, oral glucose tolerance test: 1.26 ng/mL
[2]; time 30 min
  Plasma Glucose, oral glucose tolerance test: 148.4 mg/dL
  Plasma Insulin, oral glucose tolerance test: 1.64 ng/mL
[2]; time 60 min
  Plasma Glucose, oral glucose tolerance test: 154.8 mg/dL
  Plasma Insulin, oral glucose tolerance test: 1.92 ng/mL
[2]; time 120 min
  Plasma Glucose, oral glucose tolerance test: 148.1 mg/dL
  Plasma Insulin, oral glucose tolerance test: 1.41 ng/mL
[2]; trapezoidal method
  AUC, area under the plasma glucose vs. time curve: 16,833.80 mg. min/dL
  AUC, area under the plasma insulin vs. time curve: 196.25 ng·min/mL
